Reference: US20050282225A1, “Quantitative binding assays using green fluorescent protein as a label” (priority 1998, published 2005)
Where no end group is shown, it is not given here.

Target: Avidin (Gallus gallus, UniProt P02701)
Sequence (P02701 25-152): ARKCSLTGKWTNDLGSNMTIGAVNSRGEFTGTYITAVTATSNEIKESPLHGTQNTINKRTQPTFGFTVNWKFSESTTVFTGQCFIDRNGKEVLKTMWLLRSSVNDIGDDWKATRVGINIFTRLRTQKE
Experiment: not given
Conditions: association (affinity) constant of the binding pair substance: Avidin; cited from earlier work
For `COC(=O)CCCCC1SCC2NC(=O)N(C(=O)OC)C21` (stereo not drawn) [3′-N-methoxy-carbonylbiotin methyl ester], the Ka is given as 10^9 M^−1. For `C[C@@H]1NC(=O)N[C@@H]1CCCCCC(=O)O` [Dethiobiotin], the Ka is given as 10^13 M^−1. For `O=C(O)CCCC[C@@H]1SC[C@@H]2NC(=O)N[C@@H]21` [Biotin], the Ka is given as 10^15 M^−1. In the case of `N=C1N[C@H]2[C@H](CS[C@H]2CCCCC(=O)O)N1` [Iminobiotin], the Ka is listed as 10^11 M^−1. In the case of `O=C(O)CCCCC1SCC2NC(=S)NC21` (stereo not drawn) [2-thiobiotin], the Ka is listed as 10^13 M^−1.

Tested on: anti-octapeptide M2 monoclonal antibody
Experiment: heterogeneous competitive immunoassay with immobilized M2 antibody and octapeptide-GFP conjugate, selectivity study
Assay type: binding
Conditions: sequential incubation 25 min + 25 min, supernatant fluorescence (FIG. 10)
Procedure: A dose-response curve was constructed by incubating 200 μL of a solution of different concentrations of the octapeptide with 200 μL of a 140 μg/mL suspension of the immobilized antibody and 90 μL of 1.1×10^−8 M of octapeptide-GFP conjugate and 1.510 mL of PBS buffer.
The incubations were performed in a sequential manner. Initially, the octapeptide was incubated with the beads for 25 min. Then, the tubes were centrifuged at 2000×g for 15 min, the supernatant was removed, and the beads were washed three times with PBS. PBS (1.710 mL) and the octapeptide-GFP conjugate were added, and the mixture was incubated for an additional 25 min at room temperature. The beads were then centrifuged again as described, and 1.7 mL of the supernatant was transferred to plastic cuvettes for measurement of fluorescence emission at 508 nm. The selectivity of the assay was evaluated by constructing a dose-response curve for rev-octapeptide, an octapeptide with the amino acids of the octapeptide in the reverse order.
With “KDDDDKYD [rev-octapeptide, octapeptide with the amino acids of the octapeptide in the reverse order]” the “response in dose-response curve (displacement of octapeptide-GFP from M2 antibody)” value was “essentially no response”.
